This is an account of results in patent US6294568A, “5-arylpyrrole derivatives” (priority 1997, dated 2001).

A value given as a limit tells only on which side of the number the result lay.

One experiment concerns the target T1, Human COX-1 (Homo sapiens, UniProt P23219).
T1 construct: endogenous in cells; host or cells: whole blood of a healthy human donor (own knowledge: TXB2 of clotting blood comes from platelet COX-1)
Put plainly: Human COX-1 Inhibitory Activity Test (TXB2 in blood). It is filed as cell-based. Particulars: IC50 from Hill Plot. The method, then: (§1) COX-1 and COX-2 activities were measured according to the method of Patrignani et al. (J. Pharm. Exp. Ther. Vol. 271, 1705 (1994)).
(1) COX-1 activity was measured in the following procedure. […] The serum obtained by 10 minutes of centrifugation at 2000 rpm at 4° C. was stored at -40° C. until the measurement of the amount of thromboxane B2 (TXB2). The test samples, which had been dissolved in ethanol and diluted to the specified concentrations, were previously dispensed into the glass test tubes, and the solvent was evaporated to dryness by Centrifugal Vaporizer (CVE-200D, manufactured by Tokyo Rika Mfg. Co., Ltd.) so that the test samples were added to the plasma.
(3) The measurement for the TXB2 content was conducted in the following procedure. In a part of a 96 well plate coated with anti-rabbit IgG antibody, 2 wells were allotted respectively to blank well, Non-specific Binding (NSB) well, Maximum Binding (B0) well, standard wells at 7 concentrations of TXB2 (1000 pg/ml) in doubling dilution ranging from 1000-15.6 pg/ml. The rest of the wells were used for the measurement of the samples. EIA buffer was added to the NSB wells (100 μl ) and B0 wells (50 μl), respectively. 50 μl of each of the standard dilution was added in an order from thinner to thicker concentrations. Each of the samples was added to the rest of the wells in an amount of 50 μl. Then, 50 μl of TXB2 tracer was added to each of the wells except for the blank wells. Further, 50 μl of TXB2 antibody was added to each of the wells except for the NSB wells and blank wells, then the well plate was covered with a plastic film and the reaction continued for 18 hours at room temperature. When the reaction was terminated, the wells were washed 5 times with a wash buffer. 200 μl of Elman's reagent was added to each of the wells and then the well plate was covered with a plastic film and developed for 60 minutes in a dark place. The absorbance at 405 nm was measured by an Immuno Reader (NJ-2000, manufactured by Nippon Intermed Co., Ltd.). From the measurement result, %B/B0 was calculated and, applying it to the approximation formula of Hill Plot, the concentration of the samples was determined to be 2,000 times concentration. […]

Another experiment deals with carrageenan footedema. Put plainly: Carrageenan Footedema Suppression Test. It is filed as in vivo, SD rats. Particulars: oral; paw volume three hours after carrageenan administration. The method, then:
The carrageenin footedema suppression test was conducted according to the method of Winter et al. (J. Pharm. Exp. Ther., Vol.141, 369 (1963)). The test samples suspended in Tween 80 were administered orally to SD rats (6 rats per 1 group) in an amount of 1 ml per 100 g of the body weight, while only the solvent was administered in the same manner as above as a control. One hour after the administration, 1% carrageenan physiological saline was injected subcutaneously to the rats in the plantar area of the right hind paw. Three hours after the carrageenan administration, the paw volumes were measured and the edematization rate (%) was calculated with Formula 1 and then edematization suppression rate (%) was calculated with Formula 2.
Edematization rate (%)=((paw volume after carrageenan injection- paw volume before carrageenan injection)/(paw volume before carrageenan injection)×100 Formula: 1
Edematization suppression rate (%)=((edematization rate of control-
edematization rate of test samples)/edematization rate of […]

The next experiment concerns the target T2, Human COX-2 (Homo sapiens, UniProt P35354).
T2 construct: endogenous in cells; host or cells: heparinised whole blood of a healthy human donor pretreated with aspirin, stimulated with LPS (own knowledge: COX-2 is induced in monocytes)
T2 sequence (P35354 18-604): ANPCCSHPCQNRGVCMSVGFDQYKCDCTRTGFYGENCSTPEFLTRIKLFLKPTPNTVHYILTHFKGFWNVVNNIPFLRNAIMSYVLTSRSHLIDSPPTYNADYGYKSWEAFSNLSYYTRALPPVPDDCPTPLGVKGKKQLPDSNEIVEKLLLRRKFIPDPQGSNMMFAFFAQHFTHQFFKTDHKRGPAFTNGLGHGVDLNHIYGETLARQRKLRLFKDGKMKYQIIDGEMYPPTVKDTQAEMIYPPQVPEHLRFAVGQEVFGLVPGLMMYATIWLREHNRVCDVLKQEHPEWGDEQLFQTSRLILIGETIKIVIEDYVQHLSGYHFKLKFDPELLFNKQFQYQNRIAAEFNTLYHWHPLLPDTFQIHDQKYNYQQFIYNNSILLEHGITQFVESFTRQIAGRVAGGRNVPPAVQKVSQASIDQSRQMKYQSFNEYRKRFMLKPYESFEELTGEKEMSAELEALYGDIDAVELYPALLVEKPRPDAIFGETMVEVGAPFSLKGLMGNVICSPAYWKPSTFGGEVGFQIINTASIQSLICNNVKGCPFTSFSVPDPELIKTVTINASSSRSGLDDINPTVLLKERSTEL
Description: Human COX-2 Inhibitory Activity Test (LPS-induced PGE2 in blood). The experiment is classed as cell-based. The note with it: for IC50: human blood, LPS, PGE2, IC50 from Hill Plot; for COX-1/COX-2: ratio of IC50 COX-1 to COX-2. The method, then: as §1
(2) COX-2 activity was measured in the following procedure. To blood collected from a healthy normal who had taken 330 mg of aspirin 48 hours before the blood collection in order to inhibit the COX-1 activity, 10 unit/ml of sodium heparin was added, and then pipetted into glass test tubes by 1 ml. 10 μg/ml of Lipopolysaccharide (LPS) was added thereto and the plasma obtained by the specified operation was stored at -40° C. until the measurement for the amount of prostaglandin E2 (PGE2). Test samples containing the test samples were treated in the same manner of operation as described above.
(4) The measurement for the PGE2 content was conducted in the following procedure. In a part of 96 well plate coated with goat anti-mouse antibody, 2 wells were alloted respectively to a blank well, Non-specific Binding (NSB) well, Maximum Binding (B0) well, standard wells at seven concentrations of PGE2 (1000 pg/ml) in doubling dilution ranging from 1000-15.6 pg/ml. The rest of the wells were used for the sample measurement. EIA buffer was added to the NSB wells (100 μl) and to the B0 wells (50 μl), respectively. 50 μl of each of the standard dilution was added in an order from thinner to thicker concentrations. Each of the samples was added to the rest of the wells in an amount of 50 μl. Then, 50 μl of PGE2 tracer was added to each of the wells except for blank wells. Further, 50 μl PGE2 monoclonal antibody was added to each of the wells except for the NSB wells and blank wells, then the well plate was covered with a plastic film and the reaction continued at room temperature for 18 hours. When the reaction was terminated, the wells were washed 5 times with a wash buffer. 200 μl of Elman's reagent was added to each of the wells, and then the well plate was covered with a plastic film and developed for 60 minutes in a dark place. The absorbance at 405 nm was measured by an Immuno Reader (NJ-2000, manufactured by Nippon Intermed Co., Ltd.). From the measurement result, %B/B0 was calculated and, applying it to the approximation formula of Hill Plot, the concentration of the samples was determined to be 40 times concentration. The dilution was conducted with an EIA buffer throughout the Test Example 3.

T1 sequence (P23219 24-599): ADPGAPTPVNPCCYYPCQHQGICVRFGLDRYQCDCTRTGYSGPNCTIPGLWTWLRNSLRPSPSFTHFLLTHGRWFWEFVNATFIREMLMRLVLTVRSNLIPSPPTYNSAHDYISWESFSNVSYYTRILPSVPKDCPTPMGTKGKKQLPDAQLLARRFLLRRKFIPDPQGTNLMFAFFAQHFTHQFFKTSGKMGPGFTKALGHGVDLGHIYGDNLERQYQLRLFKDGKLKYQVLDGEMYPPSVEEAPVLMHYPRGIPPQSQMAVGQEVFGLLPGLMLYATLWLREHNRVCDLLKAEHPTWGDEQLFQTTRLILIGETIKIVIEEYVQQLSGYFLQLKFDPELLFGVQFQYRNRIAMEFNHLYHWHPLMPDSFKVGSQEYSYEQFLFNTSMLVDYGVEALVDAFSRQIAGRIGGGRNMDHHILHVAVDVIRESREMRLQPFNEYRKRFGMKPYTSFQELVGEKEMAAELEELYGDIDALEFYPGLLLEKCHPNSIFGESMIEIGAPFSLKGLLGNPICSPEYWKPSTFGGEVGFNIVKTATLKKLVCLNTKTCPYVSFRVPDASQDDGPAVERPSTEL

In the case of `CSc1ccc(-c2cc(C)[nH]c2-c2ccc(S(C)(=O)=O)cc2)cc1` [Preparation Example 18, 4-(4-methylthiophenyl)-2-methyl-5-(4-methylsulfonylphenyl)-1H-pyrrole], on Human COX-1, the IC50 was 12600 nM. The “Edematization Suppression rate” value in the experiment on carrageenan footedema turned out to be 48.9%. At Human COX-2, the IC50 was found to be 123 nM and the COX-1/COX-2 came to 102.

For the molecule `Cc1cccc(-c2cc(C)[nH]c2-c2ccc(S(C)(=O)=O)cc2)c1` [Preparation Example 21, 4-(3-methylphenyl)-2-methyl-5-(4-methylsulfonylphenyl)-1H-pyrrole], on Human COX-1, the IC50 came out at 39200 nM. In the experiment with carrageenan footedema, the “Edematization Suppression rate” value was 31.6%. In addition, at Human COX-2, the IC50 was 129 nM and the COX-1/COX-2 amounted to 304.

Regarding `COc1ccc(-c2cc(C)[nH]c2-c2ccc(S(C)(=O)=O)cc2)cc1Cl` [Preparation Example 28, 4-(3-chloro-4-methoxyphenyl)-2-methyl-5-(4-methylsulfonylphenyl)-1H-pyrrole], on Human COX-2, 310 nM corresponded to half-maximal inhibition (IC50) and the COX-1/COX-2 is listed as more than 323.

With `Cc1cc(F)cc(-c2cc(C)[nH]c2-c2ccc(S(C)(=O)=O)cc2)c1` [Preparation Example 53, 4-(3-fluoro-5-methylphenyl)-2-methyl-5-(4-methylsulfonylphenyl)-1H-pyrrole], at Human COX-2, the IC50 was 162 nM and the COX-1/COX-2 worked out at 617.

In turn, `Cc1cc(-c2ccc(F)cc2F)c(-c2ccc(S(C)(=O)=O)cc2)[nH]1` [Preparation Example 7, 4-(2,4-difluorophenyl)-2-methyl-5-(4-methylsulfonylphenyl)-1H-pyrrole] had an IC50 at Human COX-1 of 30600 nM. The “Edematization Suppression rate” value in the experiment with carrageenan footedema is 34.5%. Further, at Human COX-2, it took 144 nM to reach half-maximal inhibition (IC50) and the COX-1/COX-2 is listed as 212.

On to `Cc1cc(C#Cc2ccccc2)c(-c2ccc(S(C)(=O)=O)cc2)[nH]1` [Preparation Example 48, 4-phenylethynyl-2-methyl-5-(4-methylsulfonylphenyl)-1H-pyrrole], for which the “Edematization Suppression rate” value in the experiment with carrageenan footedema is listed as 40.1%. For the same molecule, on Human COX-2, the midpoint of inhibition, the IC50, lay at 300 nM and the COX-1/COX-2 was more than 339.

Turning to `Cc1cc(-c2ccc(F)c(F)c2F)c(-c2ccc(S(C)(=O)=O)cc2)[nH]1` [Preparation Example 52, 4-(2,3,4-trifluorophenyl)-2-methyl-5-(4-methylsulfonylphenyl)-1H-pyrrole], at Human COX-1, inhibition was half-maximal at 50400 nM (IC50). Also, on Human COX-2, the IC50 was found to be 110 nM and the COX-1/COX-2 amounted to 458.

Turning to `Cc1cc(-c2ccc(F)c(F)c2)c(-c2ccc(S(C)(=O)=O)cc2)[nH]1` [Preparation Example 8, 4-(3,4-difluorophenyl)-2-methyl-5-(4-methylsulfonylphenyl)-1H-pyrrole], the IC50 at Human COX-1 was determined as 26700 nM; against Human COX-2 it was 219 nM. Besides, the “Edematization Suppression rate” value with carrageenan footedema came out at 26.7%. Moreover, on Human COX-2, the COX-1/COX-2 is on record as more than 457.

`Cc1cc(-c2ccc(F)c(Cl)c2)c(-c2ccc(S(C)(=O)=O)cc2)[nH]1` [Preparation Example 10, 4-(3-chloro-4-fluorophenyl)-2-methyl-5-(4-methylsulfonylphenyl)-1H-pyrrole] registered an IC50 on Human COX-1 of 84000 nM. Besides, the “Edematization Suppression rate” value in the experiment with carrageenan footedema is 25.7%. At Human COX-2, the IC50 was 274 nM and the COX-1/COX-2 was 307.

On to `Cc1cc(-c2ccc(N(C)C)c(C)c2)c(-c2ccc(S(C)(=O)=O)cc2)[nH]1` [Preparation Example 32, 4-(4-N,N-dimethylamino-3-methylphenyl)-2-methyl-5-(4-methylsulfonylphenyl)-1H-pyrrole], for which, on Human COX-2, inhibition was half-maximal at 442 nM (IC50) and the COX-1/COX-2 is more than 226.

Consider `Cc1cc(-c2ccc(N(C)C)cc2)c(-c2ccc(S(C)(=O)=O)cc2)[nH]1` [Preparation Example 19, 4-(4-dimethylaminophenyl)-2-methyl-5-(4-methylsulfonylphenyl)-1H-pyrrole], for which the “Edematization Suppression rate” value with carrageenan footedema is recorded as 43.2%. For the same molecule, at Human COX-2, half-maximal inhibition (IC50) was put at 747 nM and the COX-1/COX-2 is on record as more than 134.

At Human COX-1, `CCc1cc(-c2ccc(F)cc2)c(-c2ccc(S(C)(=O)=O)cc2)[nH]1` [Preparation Example 11, 2-ethyl-4-(4-fluorophenyl)-5-(4-methylsulfonylphenyl)-1H-pyrrole] came in with an IC50 of 9900 nM. Further, at Human COX-2, half-maximal inhibition (IC50) required 84 nM and the COX-1/COX-2 is listed as 118.

Take `Cc1cc(-c2cccc(Cl)c2)c(-c2ccc(S(C)(=O)=O)cc2)[nH]1` [Preparation Example 4, 4-(3-chlorophenyl)-2-methyl-5-(4-methylsulfonylphenyl)-1H-pyrrole]: at Human COX-1, the IC50 was more than 100000 nM. Also, the “Edematization Suppression rate” value in the experiment on carrageenan footedema is on record as 30.1%. Moreover, at Human COX-2, the IC50 is 164 nM and the COX-1/COX-2 is reported as more than 610.

Regarding `Cc1cc(-c2cccc(N(C)C)c2)c(-c2ccc(S(C)(=O)=O)cc2)[nH]1` [Preparation Example 23, 4-(3-dimethylaminophenyl)-2-methyl-5-(4-methylsulfonylphenyl)-1H-pyrrole], at Human COX-2, inhibition was half-maximal at 346 nM (IC50) and the COX-1/COX-2 is on record as more than 289.

Take `CS(=O)(=O)c1ccc(-c2[nH]c(CCC(=O)O)cc2-c2ccc(F)cc2)cc1` [Preparation Example 50, 4-(4-fluorophenyl)-5-(4-methylsulfonylphenyl)-1H-pyrrole-2-propionic acid]: in the experiment with carrageenan footedema, the “Edematization Suppression rate” value is 28.9%. In addition, on Human COX-2, the IC50 amounted to 454 nM and the COX-1/COX-2 was more than 220.
